# Reference: US4536335A, “Carbapenem antibiotics” (Bristol-Myers Company, priority 1983, dated 1985)
# Read-outs that look alike come from different tables or passages of the source.
# Key:
# [1] = tested on: K. pneumoniae A-9664; assay: In vitro MIC, tube dilution; format: cell-based; conditions: Nutrient Broth, overnight incubation at 37° C., additional data table
# [2] = tested on: K. pneumoniae A20468; assay: In vitro MIC, tube dilution; format: cell-based; conditions: Nutrient Broth, overnight incubation at 37° C., additional data table
# [3] = Half-life in phosphate buffer solution; format: physicochemical; conditions: 37° C.
# Experimental: A solution of para-nitrobenzyl 3-[2-(N-methylthiomorpholinium diphenylphosphate)ethylthio]-6α-[1'-(R)-hydroxyethyl]-7-oxo-1-azabicyclo[3.2.0]hept-2-ene-2-carboxylate (1.31 g, 1.76 mmol) in 0.1 M pH 7.4 phosphate buffer (48.8 mL), tetrahydrofuran (20 mL) and diethyl ether (20 mL) was hydrogenated over 10% pd/C (1.5 g) in a Parr shaker for 1 h at 40 psi. The reaction mixture was diluted with diethyl ether (40 mL) and the phases were separated. The organic phase was washed with water (2×5 mL). The aqueous phases were combined, filtered through a #52 hardened filter paper, washed with diethyl ether (2×20 mL) and pumped under vacuum. The aqueous solution was poured on a silica gel reverse phase column and the desired carbapenem was eluted with 5% acetonitrile-water.
# To a solution of p-nitrobenzyl (5R,6S)-3-[2-(1-methylmorpholino)ethylthio]-6-[(R)-1-hydroxyethyl]-7-oxo-1-azabicyclo[3.2.0]hept-2-ene-2-carboxylate diphenylphosphate (0.360 g, 0.49 mmol) in 13 mL of phosphate buffer (0.05 M pH 7.4) was added 0.36 g of 10% palladium-on-charcoal, 20 mL of tetrahydrofuran and 20 mL of diethyl ether. This mixture was hydrogenated (Parr) at 32 psi for 1 h. The mixture was filtered through Celite and the filter pad was washed with H2 O and diethyl ether. The aqueous phase was separated and the pH was adjusted to 7.0 with additional pH 7.4 phosphate buffer. After removing residual organic solvents in vacuo the aqueous solution was applied to a C18 reverse-phase column.
# To a solution of (5R,6S)paranitrobenzyl 3-[2-(1,4-dimethyl-1-piperazinium)ethylthio]-6-[1-(R)-hydroxyethyl]-7-oxo- 1-azabicyclo[3.2.0]hept-2-ene-2-carboxylate diphenylphosphate (0.47 g, 0.623 mmol) in wet tetrahydrofuran (25 mL) was added diethyl ether (25 mL), potassium phosphate monobasic-sodium hydroxide buffer (13 mL, pH 7.22) and 10% palladium on charcoal (0.47 g). The resulting mixture was hydrogenated at 23° C. under 40 psi for 1 h. The two layers were separated and the organic layer was extracted with water (2×7 mL).
# To a cold (-10° C.) solution of (5R,6S)-3-[2 -(N-methyl-thiomorpholinium)ethylthio]-6-[1-(R)-hydroxyethyl]-7-oxo-1-azabicyclo(3.2.0)-hept-2-ene-2-carboxylate (608 mg, 1.65 mmol) in a 1:1 mixture of acetonitrile-water (9 mL) was added m-chloroperbenzoic acid (334.8 mg, 1.65 mmol) in small portion over a 1 hour period. The mixture was then diluted with water (15 mL) and washed with diethyl ether (3×15 mL).
# A mixture of (5R,6S) paranitrobenzyl 3-[2-(1,4,4-trimethyl-1-piperazinium)ethylthio]-6-[1R-hydroxyethyl]-7-oxo- 1-azabicyclo(3.2.0)hept-2-ene-2-carboxylate bischloride (0.40 g, 0.68 mmol), phosphate buffer (30 mL, 0.05M, pH 7.0), tetrahydrofuran (10 mL), ether (30 mL) and 10% palladium on charcoal (0.40 g) was hydrogenated at 23° C. under 35 psi for 1 h. The two phases were separated. The organic phase was extracted with water (10 mL).
# [4] = tested on: E. cloacae A-9659; assay: In vitro MIC, tube dilution; format: cell-based; conditions: Nutrient Broth, overnight incubation at 37° C., additional data table
# Text: N-formimidoyl thienamycin was included as a comparison compound.
# [5] = tested on: S. faecalis A20688; assay: In vitro MIC, tube dilution; format: cell-based; conditions: Nutrient Broth, overnight incubation at 37° C., additional data table
# [6] = tested on: S. marcescens A20019; assay: In vitro MIC, tube dilution; format: cell-based; conditions: Nutrient Broth, overnight incubation at 37° C., additional data table
# [7] = tested on: P. aeruginosa A-9843A; assay: In vitro MIC, tube dilution; format: cell-based; conditions: Pseudomonas aeruginosa, A9843A, Nutrient Broth, overnight incubation at 37° C., additional data table
# [8] = tested on: S. pneumoniae A-9585; assay: In vitro MIC, tube dilution; format: cell-based; conditions: Streptococcus pneumoniae, A9585, Nutrient Broth, overnight incubation at 37° C., additional data table
# [9] = tested on: S. pyogenes A-9604; assay: In vitro MIC, tube dilution; format: cell-based; conditions: Streptococcus pyogenes, A9604, tube dilution, Nutrient Broth, overnight incubation at 37° C.; additional data table
# [10] = tested on: E. coli A20341-1; assay: In vitro MIC, tube dilution; format: cell-based; conditions: Nutrient Broth, overnight incubation at 37° C., additional data table
# [11] = Blood levels in mice after intramuscular administration; format: in vivo; conditions: mouse, intramuscular dose of 20 mg/kg; 20 mg/kg
# Text: Compounds were solubilized in 0.1 M phosphate buffer pH 7. Values are fro
# a single test; 4 mice used per compound.
# *t1/2 refers to halflife in minutes
# **AUC refers to the area under the blood concentrationtime curve
# (§1) Also shown is the urinary recovery in the mice.
# Compounds were solubilized in 0.1 M phosphate buffer, pH 7.
# Values based on a single test; 4 mice per compound.
# *T1/2 refers to halflife in minutes
# [12] = tested on: P. rettgeri A22424; assay: In vitro MIC, tube dilution; format: cell-based; conditions: Nutrient Broth, overnight incubation at 37° C., additional data table
# [13] = tested on: P. vulgaris A21559; assay: In vitro MIC, tube dilution; format: cell-based; conditions: Nutrient Broth, overnight incubation at 37° C., additional data table
# [14] = tested on: S. aureus A-9606; assay: Protective effect in the intramuscular treatment of infected mice (PD50); format: in vivo; conditions: Staphylococcus aureus, A9606, im; mice infected i.p. (Ex. 2: 2 × 10^9 organisms; Ex. 4 and 5: ~9 × 10^7), treated i.m. 0 and 2 h postinfection; read-out: PD50/treatment, S. aureus A-9606
# [15] = tested on: P. morganii A15153; assay: In vitro MIC, tube dilution; format: cell-based; conditions: Nutrient Broth, overnight incubation at 37° C., additional data table
# [16] = tested on: P. aeruginosa A21213; assay: In vitro MIC, tube dilution; format: cell-based; conditions: Pseudomonas aeruginosa, A21213, tube dilution, Nutrient Broth, overnight incubation at 37° C.; additional data table
# [17] = Urinary recovery after intramuscular administration to mice; format: in vivo; conditions: mouse, intramuscular dose of 20 mg/kg, 0-6 hour collection, 360 min
# Experimental: Compounds were solubilized in 0.1 M phosphate buffer pH 7. Values are from a single test; 4 mice per compound.
# as §1
# ***Recovery based on 0-6 hour collection
# [18] = tested on: E. coli A15119; assay: In vitro MIC, tube dilution; format: cell-based; conditions: Nutrient Broth, overnight incubation at 37° C., additional data table
# [19] = tested on: P. mirabilis A-9900; assay: In vitro MIC, tube dilution; format: cell-based; conditions: Proteus mirabilis, A9900, tube dilution, Nutrient Broth, overnight incubation at 37° C.; additional data table
# [20] = tested on: E. cloacae A-9656; assay: In vitro MIC, tube dilution; format: cell-based; conditions: Enterobacter cloacae, A9656, tube dilution, Nutrient Broth, overnight incubation at 37° C.; additional data table
# [21] = tested on: S. aureus A-9606 (Pen-res.); assay: In vitro MIC, tube dilution; format: cell-based; conditions: Staphylococcus aureus, Nutrient Broth, overnight incubation at 37° C., additional data table, read-out: MIC S. aureus (Pen-res.) A-9606
# [22] = tested on: S. aureus A-9537; assay: In vitro MIC, tube dilution; format: cell-based; conditions: Staphylococcus aureus, overnight incubation at 37° C., additional data table
# [23] = tested on: P. aeruginosa A20481; assay: Protective effect in the intramuscular treatment of infected mice (PD50); format: in vivo; conditions: Pseudomonas aeruginosa, A20481, im; mice infected i.p. (Ex. 2: 1 × 10^5 organisms), treated i.m. 0 and 2 h postinfection
# [24] = tested on: P. aeruginosa A-9843a; assay: as above; format: in vivo; conditions: Pseudomonas aeruginosa, A9843A, im, read-out: PD50/treatment, P. aeruginosa A9843A
# Experimental: The PD50 (dose in mg/kg required to give protection to 50% of the infected mice) is indicated.
# Treatment Schedule: Mice were treated i.m. with drugs 0 and 2 hours post-infection; 5 mice per dose were used for each test
# *For compound of Ex. 2, mice were infected i.p. with 2 × 10^9
# compounds of Ex. 4 and 5, mice were infected i.p. with ~9 ×
# were treated i.m. with drugs 0 and 2 h postinfection.
# [25] = A9537, 50% serum, tube dilution, read-out: MIC S. aureus-50% serum A-9537
# [26] = A9537, tube dilution, Nutrient Broth, read-out: MIC S. aureus A-9537
smiles,measurement,setting,value
"C[C@@H](O)[C@H]1C(=O)N2C(C(=O)[O-])=C(SCC[N+]3(C)CC[S+]([O-])CC3)C[C@H]12 (single isomer, unassigned) [Ex. 5 comp. B]",MIC K. pneumoniae A-9664,[1]; tube dilution,0.25 µg/mL
same,MIC K. pneumoniae A20468,[2]; tube dilution,0.5 µg/mL
same,T 1/2 (solution stability),"[3]; 0.065 M, pH 7.4 phosphate buffer, listed as Fraction B",10.75 h
same,MIC E. cloacae A-9659,[4]; tube dilution,0.5 µg/mL
same,MIC S. faecalis A20688,[5]; tube dilution,1 µg/mL
same,MIC S. marcescens A20019,[6]; tube dilution,0.25 µg/mL
same,MIC,[7],63 µg/mL
same,MIC,[8],0.004 µg/mL
same,MIC,[9],0.008 µg/mL
same,MIC E. coli A20341-1,[10]; tube dilution,0.13 µg/mL
same,Blood AUC,[11],4600 ng·h/mL
same,Blood Cmax,[11],12600 ng/mL
same,Blood T1/2,[11],0.167 h
same,MIC P. rettgeri A22424,[12]; tube dilution,1 µg/mL
same,MIC P. vulgaris A21559,[13]; tube dilution,0.25 µg/mL
same,ED50,[14],0.39 mg/kg
same,MIC M. morganii A15153,[15]; tube dilution,0.5 µg/mL
same,MIC,[16],32 µg/mL
same,Urine Recovery,[17],15 ± 3%
same,MIC E. coli A15119,[18]; tube dilution,0.13 µg/mL
same,MIC,[19],0.25 µg/mL
same,MIC,[20],0.25 µg/mL
same,MIC,[21],0.06 µg/mL
same,MIC,[22]; [25],0.06 µg/mL
same,MIC,[22]; [26],0.03 µg/mL
"C[C@@H](O)[C@H]1C(=O)N2C(C(=O)[O-])=C(SCC[N+]3(C)CCSCC3)C[C@H]12 [Example 2, 3-[2-(N-Methyl-thiomorpholinium)ethylthio]-6α-[1'-(R)-hydroxyethyl]-7-oxo-1-azabicyclo[3.2.0]-hept-2-ene-2-carboxylate]",MIC,"[1]; Klebsiella pneumoniae, A9664, tube dilution",0.06 µg/mL
same,MIC,"[2]; Klebsiella pneumoniae, A20468, tube dilution",0.13 µg/mL
same,half-life,"[3]; 0.1 m phosphate buffer, pH 7, 0.1 M pH 7 phosphate buffer, read-out: T1/2 (solution stability) (converted)",17.7 h
same,MIC,"[4]; Enterobacter cloacae, A9659, tube dilution",0.13 µg/mL
same,MIC,"[5]; Enterococcus faecalis, A20688, tube dilution",0.25 µg/mL
same,MIC,"[6]; Serratia marcescens, A20019, tube dilution",0.06 µg/mL
same,MIC,[7],32 µg/mL
same,MIC,[8],0.001 µg/mL
same,MIC,[9],0.002 µg/mL
same,MIC,"[10]; Escherichia coli, A203411, tube dilution",0.03 µg/mL
same,MIC,"[12]; Providencia rettgeri, A22424, tube dilution",0.13 µg/mL
same,ED50,[23],33 mg/kg
same,ED50,[24],4.7 mg/kg
same,MIC,"[13]; Proteus vulgaris, A21559, tube dilution",0.03 µg/mL
same,MIC,"[15]; Morganella morganii, A15153, tube dilution, read-out: MIC M. morganii A15153",0.06 µg/mL
same,MIC,[16],8 µg/mL
same,MIC,"[18]; Escherichia coli, A15119, tube dilution",0.016 µg/mL
same,MIC,[19],0.06 µg/mL
same,MIC,[20],0.13 µg/mL
same,MIC,[21],0.016 µg/mL
same,MIC,[22]; [25],0.016 µg/mL
same,MIC,[22]; [26],0.008 µg/mL
